Laboratory results from the NIST ThermoML archive (doi:10.1016/j.jct.2005.05.004).
± gives the expanded uncertainty stated by the source.

Key:
[1] = refractive index (Na D-line) (dimensionless); conditions: 298.15 K; 101.33 kPa; Liquid
[2] = 298.15 K; 101.33 kPa; Liquid; Vibrating tube method
[3] = refractive index (Na D-line) (dimensionless); xn = mol fraction of the nth substance listed; conditions: 298.15 K, 101.32 kPa, Liquid
[4] = xn = mol fraction of the nth substance listed; conditions: 298.15 K, 101.32 kPa, Liquid, Vibrating tube method

CCO [ethanol]
Conditions | mass density [kg/m3] | refractive index
[1] | – | 1.3592 ± 0.0016
[2] | 785.32 ± 0.43 | –

CCI [iodoethane]
Conditions | mass density [kg/m3] | refractive index
[1] | – | 1.5095 ± 0.0016
[2] | 1923.75 ± 0.76 | –

CCI [iodoethane] + CCCO
Conditions | mass density, [4] [kg/m3] | refractive index, [3]
x2 = 0.0332 | 1887.25 ± 0.99 | 1.505 ± 0.0025
x2 = 0.0469 | 1872.23 ± 0.99 | 1.503 ± 0.0025
x2 = 0.0528 | 1865.57 ± 0.99 | 1.502 ± 0.0025
x2 = 0.2862 | 1611.62 ± 0.89 | 1.4688 ± 0.0025
x2 = 0.3861 | 1501.9 ± 0.87 | 1.4567 ± 0.0025
x2 = 0.4714 | 1407.06 ± 0.86 | 1.447 ± 0.0025
x2 = 0.5981 | 1264.7 ± 0.84 | 1.4299 ± 0.0025
x2 = 0.6984 | 1150.74 ± 0.83 | 1.418 ± 0.0025
x2 = 0.7894 | 1046.25 ± 0.82 | 1.4077 ± 0.0025
x2 = 0.8728 | 949.54 ± 0.82 | 1.397 ± 0.0025
x2 = 0.9101 | 905.96 ± 0.82 | 1.393 ± 0.0025

CCI [iodoethane] + CCO
Conditions | mass density, [4] [kg/m3] | refractive index, [3]
x2 = 0.0481 | 1880.86 ± 0.91 | 1.503 ± 0.0025
x2 = 0.0942 | 1839.5 ± 0.9 | 1.4971 ± 0.0025
x2 = 0.2302 | 1712.7 ± 0.86 | 1.479 ± 0.0025
x2 = 0.29 | 1654.4 ± 0.87 | 1.4701 ± 0.0025
x2 = 0.3989 | 1543.6 ± 0.85 | 1.4535 ± 0.0025
x2 = 0.4889 | 1447.12 ± 0.86 | 1.442 ± 0.0025
x2 = 0.6035 | 1316.7 ± 0.86 | 1.4241 ± 0.0025
x2 = 0.687 | 1215.7 ± 0.89 | 1.4093 ± 0.0025
x2 = 0.7935 | 1078.8 ± 0.91 | 1.3929 ± 0.0025
x2 = 0.8994 | 933.27 ± 0.94 | 1.3761 ± 0.0025
x2 = 0.9522 | 856.7 ± 0.97 | 1.3675 ± 0.0025

CCI [iodoethane] + CO
Conditions | mass density, [4] [kg/m3] | refractive index, [3]
x2 = 0.1198 | 1843.6 ± 0.8 | 1.4964 ± 0.0025
x2 = 0.1399 | 1829.8 ± 0.8 | 1.4938 ± 0.0025
x2 = 0.2068 | 1783 ± 0.8 | 1.4869 ± 0.0025
x2 = 0.26 | 1743.6 ± 0.8 | 1.4787 ± 0.0025
x2 = 0.4066 | 1622.2 ± 0.8 | 1.4578 ± 0.0025
x2 = 0.4234 | 1606.9 ± 0.8 | 1.4553 ± 0.0025
x2 = 0.4808 | 1552.1 ± 0.8 | 1.4451 ± 0.0025
x2 = 0.4954 | 1537.5 ± 0.8 | 1.4436 ± 0.0025
x2 = 0.5699 | 1458.5 ± 0.9 | 1.4302 ± 0.0025
x2 = 0.6771 | 1329.5 ± 0.9 | 1.4084 ± 0.0025
x2 = 0.7989 | 1156.8 ± 1 | 1.3821 ± 0.0025
x2 = 0.9094 | 969.6 ± 1.1 | 1.3534 ± 0.0025

CCI [iodoethane] + Cc1ccccc1
Conditions | mass density, [4] [kg/m3] | refractive index, [3]
x2 = 0.1279 | 1749.5 ± 1 | 1.5056 ± 0.0025
x2 = 0.2014 | 1655.8 ± 1 | 1.5038 ± 0.0025
x2 = 0.3085 | 1526.9 ± 0.9 | 1.5012 ± 0.0025
x2 = 0.3955 | 1428.3 ± 0.9 | 1.5002 ± 0.0025
x2 = 0.4476 | 1371.7 ± 0.8 | 1.499 ± 0.0025
x2 = 0.4678 | 1350.2 ± 0.8 | 1.4992 ± 0.0025
x2 = 0.4961 | 1320.5 ± 0.8 | 1.4983 ± 0.0025
x2 = 0.5735 | 1241.7 ± 0.8 | 1.4974 ± 0.0025
x2 = 0.6009 | 1214.7 ± 0.8 | 1.4968 ± 0.0025
x2 = 0.6974 | 1122.5 ± 0.7 | 1.4959 ± 0.0025
x2 = 0.7276 | 1094.6 ± 0.7 | 1.4957 ± 0.0025
x2 = 0.7984 | 1031 ± 0.7 | 1.4948 ± 0.0025
x2 = 0.8866 | 954.9 ± 0.7 | 1.4943 ± 0.0025
x2 = 0.9322 | 916.9 ± 0.7 | 1.494 ± 0.0025

CO [methanol]
Conditions | mass density [kg/m3] | refractive index
[1] | – | 1.3262 ± 0.0016
[2] | 787.98 ± 0.43 | –

CCCO [propan-1-ol]
Conditions | mass density [kg/m3] | refractive index
[1] | – | 1.3829 ± 0.0016
[2] | 799.69 ± 0.43 | –

Cc1ccccc1 [toluene]
Conditions | mass density [kg/m3] | refractive index
[1] | – | 1.4938 ± 0.0016
[2] | 862.28 ± 0.43 | –

Cc1ccccc1 [toluene] + CCCO
Conditions | mass density, [4] [kg/m3] | refractive index, [3]
x1 = 0.0609 | 805.41 ± 0.43 | 1.3918 ± 0.0025
x1 = 0.0969 | 808.53 ± 0.43 | 1.397 ± 0.0025
x1 = 0.1939 | 816.4 ± 0.43 | 1.4108 ± 0.0025
x1 = 0.3036 | 824.3 ± 0.43 | 1.4249 ± 0.0025
x1 = 0.3965 | 830.4 ± 0.43 | 1.4349 ± 0.0025
x1 = 0.4988 | 836.58 ± 0.43 | 1.4469 ± 0.0025
x1 = 0.5524 | 839.64 ± 0.43 | 1.4509 ± 0.0025
x1 = 0.5932 | 841.82 ± 0.43 | 1.4533 ± 0.0025
x1 = 0.692 | 847.02 ± 0.43 | 1.466 ± 0.0025
x1 = 0.77 | 851.01 ± 0.43 | 1.473 ± 0.0025
x1 = 0.9274 | 858.78 ± 0.43 | 1.4873 ± 0.0025
x1 = 0.9343 | 859.08 ± 0.43 | 1.488 ± 0.0025

Cc1ccccc1 [toluene] + CCO
Conditions | mass density, [4] [kg/m3] | refractive index, [3]
x1 = 0.0476 | 792.25 ± 0.44 | 1.3699 ± 0.0025
x1 = 0.1205 | 801.71 ± 0.44 | 1.385 ± 0.0025
x1 = 0.1948 | 810 ± 0.43 | 1.3993 ± 0.0025
x1 = 0.2994 | 820.14 ± 0.43 | 1.4163 ± 0.0025
x1 = 0.3992 | 828.34 ± 0.43 | 1.4311 ± 0.0025
x1 = 0.4884 | 834.71 ± 0.43 | 1.443 ± 0.0025
x1 = 0.5577 | 839.3 ± 0.43 | 1.4518 ± 0.0025
x1 = 0.5994 | 841.81 ± 0.43 | 1.4565 ± 0.0025
x1 = 0.7159 | 848.36 ± 0.43 | 1.4682 ± 0.0025
x1 = 0.7646 | 850.92 ± 0.43 | 1.4732 ± 0.0025
x1 = 0.8915 | 857.06 ± 0.43 | 1.485 ± 0.0025
x1 = 0.8917 | 857.09 ± 0.43 | 1.485 ± 0.0025

Cc1ccccc1 [toluene] + CO
Conditions | mass density, [4] [kg/m3] | refractive index, [3]
x1 = 0.0491 | 797.2 ± 0.4 | 1.3464 ± 0.0025
x1 = 0.1058 | 806.2 ± 0.4 | 1.366 ± 0.0025
x1 = 0.199 | 818.1 ± 0.4 | 1.3921 ± 0.0025
x1 = 0.3361 | 831.1 ± 0.4 | 1.4215 ± 0.0025
x1 = 0.4097 | 836.6 ± 0.4 | 1.4337 ± 0.0025
x1 = 0.4501 | 839.2 ± 0.4 | 1.4402 ± 0.0025
x1 = 0.5024 | 842.4 ± 0.4 | 1.4478 ± 0.0025
x1 = 0.5393 | 844.4 ± 0.4 | 1.4527 ± 0.0025
x1 = 0.5818 | 846.6 ± 0.4 | 1.4579 ± 0.0025
x1 = 0.6961 | 851.7 ± 0.4 | 1.47 ± 0.0025
x1 = 0.7764 | 854.8 ± 0.4 | 1.4778 ± 0.0025
x1 = 0.8695 | 858 ± 0.4 | 1.485 ± 0.0025
x1 = 0.9416 | 860.2 ± 0.4 | 1.4904 ± 0.0025
